Values of other authors in patent US11634466B2, “Musclin peptides and methods of use thereof” (UNIVERSITY OF IOWA RESEARCH FOUNDATION, priority 2016, dated 2023).

Target: T1, NPRA (Homo sapiens, UniProt P16066)
T1 sequence (P16066 33-1061): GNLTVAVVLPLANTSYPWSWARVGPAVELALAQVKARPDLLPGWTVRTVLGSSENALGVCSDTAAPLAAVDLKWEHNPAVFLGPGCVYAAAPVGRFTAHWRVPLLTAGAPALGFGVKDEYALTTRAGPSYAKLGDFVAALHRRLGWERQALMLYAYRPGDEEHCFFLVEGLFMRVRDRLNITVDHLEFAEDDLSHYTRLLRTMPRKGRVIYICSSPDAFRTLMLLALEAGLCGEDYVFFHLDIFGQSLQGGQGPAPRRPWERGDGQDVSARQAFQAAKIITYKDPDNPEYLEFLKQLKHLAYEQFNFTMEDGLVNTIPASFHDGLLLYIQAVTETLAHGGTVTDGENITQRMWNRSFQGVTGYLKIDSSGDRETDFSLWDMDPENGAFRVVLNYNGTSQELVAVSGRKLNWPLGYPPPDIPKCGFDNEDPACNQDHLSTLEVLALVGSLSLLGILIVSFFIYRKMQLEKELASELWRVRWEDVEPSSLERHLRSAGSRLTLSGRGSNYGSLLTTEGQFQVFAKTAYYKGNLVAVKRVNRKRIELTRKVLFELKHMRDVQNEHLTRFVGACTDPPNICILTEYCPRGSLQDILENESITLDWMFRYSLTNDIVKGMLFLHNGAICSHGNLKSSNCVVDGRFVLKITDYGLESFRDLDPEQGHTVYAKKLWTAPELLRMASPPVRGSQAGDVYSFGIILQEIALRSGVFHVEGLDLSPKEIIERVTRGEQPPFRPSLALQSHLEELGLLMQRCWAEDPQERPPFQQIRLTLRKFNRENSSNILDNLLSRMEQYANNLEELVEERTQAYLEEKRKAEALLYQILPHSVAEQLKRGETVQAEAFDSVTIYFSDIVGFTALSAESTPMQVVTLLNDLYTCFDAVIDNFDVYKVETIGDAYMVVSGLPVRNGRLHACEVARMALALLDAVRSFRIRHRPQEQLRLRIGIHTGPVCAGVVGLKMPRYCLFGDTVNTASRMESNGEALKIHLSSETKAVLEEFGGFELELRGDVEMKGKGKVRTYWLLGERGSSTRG
Settings: background statement; without activating the linked guanylyl cyclase; cited from earlier work

H-SFSGFGSPLDRLSAGSVEHRGKQRKAVDHSKKR-OH [musclin]
binding to NPRA: weak binding
